Several values for one entry are separate records, joined by “and”; a condition that tells them apart may be missing. Identical values can stand only once.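 Five compound concentrations were applied to cells in 96-well plates for 48 hours; endpoints were derived by simple linear interpolation of the resulting dose-response curve. The concentration for 50% growth inhibition is given as GI50. At the TGI there is no net growth.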
Columns and labels:
Assay in all cases: NCI anticancer screen, dose series, 48 h
BT-549 breast = tested on: BT-549 breast
HCT-116 colon = tested on: HCT-116 colon
HL-60(TB) leukemia = tested on: HL-60(TB) leukemia
LOX IMVI melanoma = tested on: LOX IMVI melanoma
M14 melanoma = tested on: M14 melanoma
MCF7 breast = tested on: MCF7 breast
MDA-MB-231 breast = tested on: MDA-MB-231 breast
OVCAR-4 ovarian = tested on: OVCAR-4 ovarian
SF-295 CNS = tested on: SF-295 CNS
SW-620 colon = tested on: SW-620 colon

Row | SMILES | GI50 (BT-549 breast) [µM] | TGI (BT-549 breast) [µM] | GI50 (HCT-116 colon) [µM] | TGI (HCT-116 colon) [µM] | GI50 (HL-60(TB) leukemia) | TGI (HL-60(TB) leukemia) | GI50 (LOX IMVI melanoma) [µM] | TGI (LOX IMVI melanoma) [µM] | GI50 (M14 melanoma) [µM] | TGI (M14 melanoma) [µM] | GI50 (MCF7 breast) [µM] | TGI (MCF7 breast) [µM] | GI50 (MDA-MB-231 breast) [µM] | TGI (MDA-MB-231 breast) [µM] | GI50 (OVCAR-4 ovarian) [µM] | TGI (OVCAR-4 ovarian) [µM] | GI50 (SF-295 CNS) [µM] | TGI (SF-295 CNS) [µM] | GI50 (SW-620 colon) [µM] | TGI (SW-620 colon) [µM]
1 | COc1ccc(Oc2nc3cc(N)cc(N)c3nc2-c2ccccc2)cc1 | 32.1 | > 100 | 28.7 | 75.1 | 15.4 µM | > 100 µM | 34.7 | > 100 | > 100 | > 100 | 48.2 | > 100 | 20.4 | 64.5 | 3.75 | 24.6 | 23.4 | 52.4 | 88.2 | > 100
2 | Cc1ccc(N(C=O)c2c([N+](=O)[O-])cc([N+](=O)[O-])c3c2=[N+]([O-])CN=3)cc1 |  | 69 |  | 67.4 |  | 61.3 µM |  | 90.3 |  | 44.8 |  | 57.7 |  | 54.5 |  | > 100 |  | > 100 |  | > 100
3 | CCc1nc(C)cn1C(=O)OCc1nc2nc(Cl)nc(N3CCOCC3)c2[nH]1 | 1.55 | 4.26 | 0.364 | 2.3 | 0.451 µM | 3.15 µM | 1.02 | 2.33 | 1.27 | 3.1 | 0.633 | 2.44 | 1.39 | 2.83 | 1.49 | 2.93 | 2.79 | 11.7 | 1.11 | 2.69
4 | O=S1(=O)c2ccccc2N(c2ccccc2)c2nnnn21 |  | 70.5 |  | 86.9 |  | 33.6 µM |  | 32.6 |  | 54.5 |  | > 100 |  | 72.4 |  | 70.4 |  | > 100 |  | 53.6
5 | CNC(=O)ON(C(C)=O)C(=O)NC | > 45.2 | 60.5 |  | 136 | 14.2 µM and 8.38 µM | 37.7 µM and 29.5 µM | 65.2 | 119 | > 83.2 | 41 |  | 154 | 28.8 | 78.4 |  | 142 |  | 267 | > 94 | 224
6 | CC12OC(CC(O)C1O)n1c3ccccc3c3c4c(c5c6ccccc6n2c5c31)C(=O)N(CCN1CCOCC1)C4=O (stereo unspecified) | 1.61 | 8.21 | 0.625 | 5.51 | 0.989 µM | 7.08 µM | 0.425 | 1.29 | 0.912 | 4.54 | 0.242 | 8.02 | 3.04 | 11.5 | 2.2 | 12.3 | 0.598 | 3.17 | 0.626 | 7.42
7 | CC1(C)C(N2CCOCC2)CS1(=O)=O (stereo unspecified) |  | > 10 |  | > 10 |  | > 10 µM |  | > 10 |  | > 10 |  | > 10 |  | > 10 |  | > 10 |  | > 10 |  | > 10
8 | C#C[C@@]1(O)[C@@H](CO)O[C@@H](n2cc(Br)c3c(Cl)ccnc32)[C@@H]1O | 0.522 | 12.2 | 0.859 | > 100 | 1.03 µM | 3.69 µM | 0.289 | 2.15 | 17 | > 100 | 0.394 | > 31.6 | 0.289 | 1.94 | 0.677 | > 100 | 1.03 | > 100 | 0.552 | > 100
9 | CN(C)c1ccc(/C=C(\C#N)c2cc3ccccc3[nH]2)cc1 | 3.86 | > 100 | 0.456 | > 100 | 0.455 µM | > 100 µM | 0.692 | > 100 | 0.551 | > 100 | 0.416 | > 100 | 1.63 | > 100 | 3.75 | > 100 | 0.61 | 7.33 | 0.39 | 61.9
10 | CN1CCN(CCCNC(=O)c2c3c(n4ccccc24)C(=O)c2ncccc2C3=O)CC1 | 7.24 | 20.6 | 0.632 | 4.93 | 2.23 µM | 5.76 µM | 0.715 | 3.36 | 1.21 | 2.6 | 0.612 | 2.62 | 1 | > 80 | 0.413 | 1.56 | 1.25 | 13.1 | 0.578 | 9.49
11 | Cc1ccc(N)cc1[As]=[As]c1cc(N)ccc1C (stereo unspecified) | 1.46 | 2.8 | 1.64 | 3.15 | 2.01 µM | 5.8 µM | 1.47 | 2.88 | 1.71 | 3.4 | 0.537 | 2.75 | 1.35 | 2.82 | 1.42 | 2.79 | 4.6 | 12.3 | 1.27 | 3.2
12 | Cc1ccc(/C=N/NC(=O)c2ccccc2Oc2ccccc2)o1 | 28.4 | > 100 | 48.8 | > 100 | 22.8 µM | > 74.1 µM | > 67.4 | > 100 | 40.5 | > 100 | 32.9 | > 100 | 32.7 | > 100 | 24.6 | > 100 | 27.9 | > 100 | > 77.6 | > 100

From PubChem BioAssay (NCI)
